Measured values reported in patent publication US6576239B1, “Angiogenic homing molecules and conjugates derived therefrom” (The Burnham Institute, priority 1996, dated 2003).
Read-outs that look alike come from different tables or passages of the source. No end group written: not given here.

Tests used:
[1] = system: Human 435 breast carcinoma tumor; test: In vivo targeting of phage expressing a peptide to a tumor (phage quantitated in organs); design: species or system mice; settings: mouse melanoma, human Kaposi's sarcoma xenograft
Protocol: Human 435 breast carcinoma cells were inoculated into the mammary fat pad of nude mice. When the tumors attained a diameter of about 1 cm, phage expressing a specific RGD-containing peptide were administered to the tumor bearing mouse. Similar results
1×10^9 phage expressing the RGD-containing peptide, […] (SEQ ID NO: 1; see, Koivunen et al., supra, 1995) or control (insertless) phage were injected intravenously (iv) into the mice and allowed to circulate for 4 min. The mice then were snap frozen or perfused through the heart while under anesthesia, and various organs, including tumor, brain and kidney, were removed and the phage present in the organs was quantitated (see U.S. Pat. No. 5,622,699; Pasqualini and Ruoslahti, supra, 1996).
Approximately 2-3 times more phage expressing the […] (SEQ ID NO: 1) peptide were detected in the breast tumor as compared to brain and kidney, indicating the […] […] In a parallel study, unselected phage, which express various, diverse peptides, were injected into tumor-bearing mice and various organs were examined for the presence of phage. Far more phage were present in kidney and, to a lesser extent, brain, as compared to the tumor. Thus, the 80-fold more RGD-expressing phage than unselected phage concentrated in the tumor.

breast tumor [2] = test: Competition of phage tumor homing by coinjection of free peptide; type: in vivo, mice; settings: for effect of coinjected free peptide on homing of CDCRGDCFC phage: coinjection with CDCRGDCFC (RGD) phage; for effect of co-injected peptide on accumulation of NGR phage in breast carcinoma xenografts: phage expressing CNGRCVSGCAGRC, NGRAHA or CVLNGRMEC
Text: Selective homing can be distinguished from nonspecific binding, however, by detecting differences in the abilities of different individual phage to home to a tumor. For example, selective homing can be identified by combining a putative tumor homing molecule such as a peptide expressed on a phage with a large excess of non-infective phage or with about a five-fold excess of phage expressing unselected peptides, injecting the mixture into a subject and collecting a sample of the tumor. […] In addition, nonspecific localization can be distinguished from selective homing by performing competition experiments using, for example, phage expressing a putative tumor homing peptide in combination with an excess amount of the “free” peptide (Example IV).
The various peptides, including RGD- and NGR-containing peptides, generally were bound to the tumor blood vessels. The minimal cyclic NGR peptide, CNGRC (SEQ ID NO: 8), was synthesized based on the CNGRCVSGCAGRC (SEQ ID NO: 3) sequence. When the CNGRC (SEQ ID NO: 8) peptide was co-injected with phage expressing either CNGRCVSGCAGRC (SEQ ID NO: 3), NGRAHA (SEQ ID NO: 6) or CVLNGRMEC (SEQ ID NO: 7), accumulation of the phage in the breast carcinoma xenografts was inhibited. […] (SEQ ID NO: 1) peptide, even when administered in amounts up to ten times higher than those that inhibited the homing of the NGR phage. In comparison, the […]

human αv-integrins = settings: cited from earlier work
[3] = system: MDA-MB-435 human breast carcinoma cells; type: cell-based; settings: for cell killing: agents not removed after 30 min, 24 hr
Protocol: MDA-MB-435 human breast carcinoma cells were plated at 1×10^5 cells/well in 96 well plates. Cells were incubated with increasing amounts of doxorubicin, the doxorubicin/[…] (SEQ ID NO: 1) conjugate, or the doxorubicin/GACVFSIAHECGA (SEQ ID NO: 19; control) conjugate (0.1 to 10 μg/well of doxorubicin-equivalent) for either 30 min or overnight. […] The number of surviving cells was determined at 24hours with crystal violet staining (see Koivunen et al., supra, 1994).

[4] = system: MDA-MB-435 breast carcinoma; test: Tumor therapy of breast tumor bearing mice with doxorubicin/peptide conjugates; type: in vivo, BALB/c nu/nu mice; settings: for gross examination of tumors (skin ulceration, tumor necrosis): 5 μg doxorubicin equivalent; for effect on tumor growth: relative to treatment with the vehicle, alone
Protocol: Female 2-month old BALB/c nu/nu mice (Harlan Sprague Dawley; San Diego Calif.) were used for these studies and were cared for according to the Burnham Institute animal facility guidelines. MDA-MB-435 breast carcinoma cells (Price et al., Cancer Res. 50:717-721 (1993)) were injected in the mammary fat pad of the nude mice and tumor growth was monitored (Pasqualini et al., supra, 1997). Tumors were allowed to grow to a size of about 1 cm^3 (about 5% of the mouse's body weight) before starting the treatment experiments, except for the toxicity experiments as discussed below.
Weekly doxorubicin/peptide conjugate or control treatments (5 μg/mouse/week of doxorubicin-equivalent) were administered intravenously. In some experiments, as indicated, a dose of 30 μg/mouse was administered every 3 weeks. Treatment with doxorubicin, alone, is referred to as “dox control” and treatment with doxorubicin conjugated to the non-tumor homing control peptide, […] As an additional control, in some experiments the tumor homing peptide was mixed with doxorubicin, without linking, and the mixture was administered to tumor bearing mice. Such treatment produced results that were not statistically different from those obtained with the above described dox controls.
Mice were anesthetized with a tribromoethanol-based anesthetic mixture (AVERTIN; Papaioannou and Fox, Lab. Anim. 43:189-192 (1993)) before each treatment. Anesthetization facilitated the tail vein injections (final volume, 200 μl) and allowed precise serial three dimensional tumor size measurements. Tumor volume calculations were based on the equation for the volume of an ovaloid: V= 4/3 (Πabc), where a, b, and c are ½ of the measured diameters in each of the three dimensions.

[5] = Acute toxicity in mice bearing extremely large tumors
breast tumor [6] = test: Viability of tumor cells obtained from tumors of treated mice; type: in vivo; settings: 30 μg equivalent iv, tumors removed after five days, cells counted 24 hours and 7 days after plating
Protocol: In addition, the viability of tumor cells obtained from tumors of mice treated with a tumor homing peptide/doxorubicin conjugate was compared to that of tumors from mice treated with free doxorubicin. In these experiments, breast tumor bearing mice were size matched with regard to the tumors, then treated intravenously with 30 μg equivalent of doxorubicin/CDCRGDCFC (SEQ ID NO: 1) or of free doxorubicin. Five days after treatment, the mice were euthanized and the tumors were removed. The tumor pairs were weighed and ground and the cell suspensions were plated (2 g tumor tissue per 150 mm plate).
Cell numbers were determined at 24 hours and 7 days after plating. Viability of tumor cells from the tumors of mice receiving the doxorubicin/CDCRGDCFC (SEQ ID NO: 1) conjugate was about 3 fold less than cells from tumors of mice treated with the free doxorubicin.

B16B15b mouse melanoma = test: In vivo panning against a melanoma tumor; design: species or system mice; settings: 89 cloned phage recovered from B16B15b tumors after three rounds
Protocol: Tumors were transplanted into mice as described in Examples II and III, below. A mixture of phage libraries containing 1×10^9 to 1×10^14 TU was diluted in 200 μl DMEM and injected into the tail vein of anesthetized mice (AVERTIN (0.015 ml/g); see U.S. Pat. No. 5,622,699; Pasqualini and Ruoslahti, supra, 1996). After 1-4 minutes, mice were snap frozen in liquid nitrogen. To recover the phage, carcasses were partially thawed at room temperature for 1 hr, tumors and control orqans were collected and weighed, then were ground in 1 ml DMEM-PI (DMEM containing protease inhibitors (PI); phenylmethylsulfonyl fluoride (PMSF; 1 mM), aprotinin (20 μg/ml), leupeptin (1 μg/ml)).
Individual colonies containing phage recovered from a tumor were grown for 16 hr in 5 ml NZY/tet. The bacterial cultures obtained from the individual colonies were pooled and the phage were purified and re-injected into mice as described above for a second round of in vivo panning. In general, a third round of panning also was performed. Phage DNA was purified from individual bacterial colonies obtained from the final round of in vivo panning and the DNA sequences encoding the peptides expressed by selected phage were determined (see Koivunen et al., supra, 1994b).
Mice bearing a melanoma were produced by implantation of B16B15b mouse melanoma cells, which produce highly vascularized tumors. […]

[7] = 5 μg/mouse/week doxorubicin-equivalent iv
[8] = 30 min exposure, 0.1 to 10 μg/well doxorubicin-equivalent, survivors counted at 24 hours
[9] = 200 μg/mouse, tumors about 25% of body weight
[10] = 5 μg/mouse/week iv, t test, p<0.0001

Q: For CNGRCVSGCAGRC, which “tumor homing of phage/peptide” value [1] is on record?
A: also homed in vivo to a melanoma and to a Kaposi's sarcoma, but not to nontumor tissues

Q: What does the source list for CDCRGDCFC?
A: effect of coinjected free peptide on homing of CDCRGDCFC phage (breast tumor [2]): greatly reduced tumor homing of the RGD phage; amount needed to inhibit homing of NGR phage relative to CNGRC peptide (breast tumor [2]; higher than that of the CNGRC peptide): 5 to 10 fold; effect of co-injected peptide on accumulation of NGR phage in breast carcinoma xenografts (breast tumor [2]): partially inhibited; binding to human αv-integrins (human αv-integrins): binds to human αv-integrins

Q: Which “effect of coinjected free peptide on amount of RGD phage in the tumor” value (breast tumor [2]; 500 μg free peptide coinjected with phage expressing CDCRGDCFC) does the source give for ACDCRGDCFCG here?
A: reduced the amount of phage in the tumor by about tenfold

Q: Which results are given for “doxorubicin/GACVFSIAHECGA: doxorubicin conjugated to the non-tumor homing control peptide GACVFSIAHECGA (SEQ ID NO: 19) (cysteine pairing not given here; also: doxorubicin conjugate) [reference compound]”?
A: cell death [3]: cell death was present only in the cultures treated with the doxorubicin/[…]; cell killing [3]: the cells were killed by all of the treatments; gross examination of tumors (skin ulceration, tumor necrosis) [4]: no such signs were observed; results as compared to dox control groups [4, 7]: not significantly different; effect on tumor growth [4]: essentially no effect on tumor growth

Q: Which “effect of coadministered free peptide on homing of CGSLVRC phage” value (breast tumor [2]; mouse, in vivo) does the source give for CGSLVRC here?
A: inhibited

Q: With COc1cccc2c1C(=O)c1c(O)c3c(c(O)c1C2=O)C[C@@](O)(C(=O)CO)C[C@@H]3O[C@H]1C[C@H](N)[C@H](O)[C@H](C)O1 [doxorubicin, reference compound] as the molecule, how does the cell death [3, 8] read?
A: cell death was present only in the cultures treated with the doxorubicin/[…]

Q: And the cell killing [3]?
A: the cells were killed by all of the treatments

Q: And the “time to death after treatment” value [5, 9]?
A: ≤ 48 h

Q: What about the “gross examination of tumors (skin ulceration, tumor necrosis)” value [4] of the same molecule?
A: no such signs were observed

Q: And the “effect on tumor growth” value [4]?
A: essentially no effect on tumor growth

Q: Which results are given for “doxorubicin/CDCRGDCFC: doxorubicin coupled by EDC/NHS to the tumor homing peptide CDCRGDCFC (SEQ ID NO: 1) (cysteine pairing not given here; also: doxorubicin conjugate via EDC/NHS, site not given here)”?
A: cell death [3, 8]: cell death was present; cell killing [3]: the cells were killed by all of the treatments; survival after treatment [5, 9]: survived for longer than one week; viability of tumor cells, fold less than after free doxorubicin (breast tumor [6]): about 3 fold; gross examination of tumors (skin ulceration, tumor necrosis) [4]: marked skin ulceration and tumor necrosis; survival [4, 7]: survived beyond the time when the dox control and conjugate control mice had died; tumor size compared with control groups [4, 7]: significantly smaller tumors; pulmonary metastasis vs dox control [4, 10]: a lower incidence of pulmonary metastasis and fewer metastatic lesions; spread to regional lymph nodes vs dox control [4, 10]: less spread to regional lymph nodes; histopathological analysis of tumor vasculature ([4]; compared to the dox control group): pronounced destruction of the vasculature in the tumors; time remaining alive after dox control and conjugate control mice had died ([4]; dose escalation, 30 μg/mouse every three weeks for three cycles): more than 6 months

Q: For CLSGSLSC, which “share of the clones sequenced” value (B16B15b mouse melanoma) is on record?
A: 52%

Q: And the “tumor homing of phage/peptide” value [1]?
A: also homed to a breast tumor and to Kaposi's sarcoma

Q: With GRGESP [reference compound] as the molecule, how does the “effect of coinjected free peptide on amount of RGD phage in the tumor” value (breast tumor [2]; 500 μg free peptide coinjected with phage expressing […]) read?
A: essentially had no effect

Q: Which “effect of coinjected free peptide on homing of CDCRGDCFC phage” value (breast tumor [2]) does the source give for CNGRC here?
A: did not inhibit

Q: And the “effect of co-injected peptide on accumulation of NGR phage in breast carcinoma xenografts” value (breast tumor [2])?
A: inhibited

Q: Which results are given for “doxorubicin/CNGRC (cysteine pairing not given here; also: doxorubicin conjugate)”?
A: toxicity relative to free doxorubicin ([5]; mouse, in vivo): less toxic than free doxorubicin; survival [4, 7]: marked effect on survival; tumor size compared with control groups [4, 7]: significantly smaller; effect on tumor growth [4]: almost completely suppressed tumor growth

Q: For WGTGLC, which “share of the clones sequenced” value (B16B15b mouse melanoma) is on record?
A: 25%
